Patent publication US7419997B2, “Tetrahydrocarbazole derivatives and their pharmaceutical use” (SmithKline Beecham Corporation, priority 2003, dated 2008)

test system: episomal HPV16 DNA in W12-20850 cells; assay: W-12 cellular assay (episomal HPV-16 DNA, hybrid capture); format: cell-based, HPV16 (human papillomavirus); details: Human papillomavirus 16, 96 h, four days incubation, episomal HPV-16 DNA quantified by hybrid capture, inhibition relative to untreated control cells
Experimental: Compounds of the current invention are believed useful in the treatment and/or prophylaxis of conditions and diseases associated with HPV infection. Activity mediated through HPV was determined using the following W-12 cellular assay.
The W12 cell line used contains HPV16 DNA and was derived from a low-grade cervical dysplasia tissue by Margaret Stanley and subsequently clonally selected by Paul Lambert (University of Wisconsin). One of these clones, W12-20850, contains 1000 copies of episomal HPV16 DNA and was used in the cell-based assay. W12-20850 cells were routinely cultured with a gamma-irradiated (6000 rads) feeder layer of 3T3 cells. Assays, however, were run in the absence of a 3T3 feeder layer. W12-20850 and 3T3 cells were routinely split when they were sub-confluent. W12-20850 were grown in W12 Medium which is constituted of 25% DMEM (Gibco BRL, Cat # 12430-047), 75% F12 Media (Gibco BRL, Cat # 11765-021) and 2.5% FBS. The additives include […] Adenine (Sigma, Cat # A-9795), 0.4 mg/ml Hydrocortisone (Calbiochem, Cat # 386698), […] Bovine Insulin (Sigma, Cat # I-1882), 8.4 ng/ml cholera toxin (Fluka, Cat # 26694) and 10 ng/ml EGF (Invitrogen, Cat # 13247-051). 3T3 cells were grown in DMEM containing 10% FBS. Cell lines were incubated at 37° C., in the presence of 5% CO2.
For the assay, W12-20850 cells were seeded into a 96 well plate-containing compound. Plates were incubated at 37° C. in the presence of 5% CO2, for four days. On the fourth day, cells were lysed and the amount of episomal HPV-16 DNA was quantified using a non-radioactive hybrid capture technique with HPV-16 specific capture and detection probes. The percent inhibition relative to untreated control cells was then determined.
The hybrid capture assay is run in a 96 well plate format. Hybridization plates (Nunc Maxisorb Cat # 450320) were coated with a mixture of capture probe and ReactiBind solution for at least 4 hours and then washed with 0.2)(SSC, 0.05% Tween20 (SSCT) prior to blocking with 150 μl/well of 0.2 N NaOH, 1% Igepal, 10 mg/ml hsDNA for 6-8 hours. The hybridization was carried out by mixing 271 μl of lysed cells with 45 μl of denatured detection probe in 6M guanidine isothiocyanate. To prevent evaporation, 50 μl of mineral oil was added to each well. The plate was then heated to 90° C. for 6.5 minutes and the hybridization continued at 42° C. overnight. Assay plates were washed 6 times with SSC/T. Anti-digoxigenin HRP-conjugated Ab (Boehringer Mannheim 1207733, 1:5000) was incubated in the wells for 30 min at room temperature and washed with PBS/0.05% Tween-20. SuperSignal LBA substrate (Pierce Cat # 37070) was added, and chemiluminescence was measured using Wallac 1420 Victor plate reader.

| SMILES | IC50 [nM] |
| --- | --- |
| Cc1ccc2[nH]c3c(c2c1)CCCC3NC(=O)Nc1ccccc1 (stereo not shown) [Example 43, N-(6-Methyl-2,3,4,9-tetrahydro-1H-carbazol-1-yl)-N′-phenylurea] | > 10000 |
| O=C(Nc1ccccc1)NC1CCCc2c1[nH]c1ccc(Cl)cc21 (stereo not shown) [Example 44, N-(6-Chloro-2,3,4,9-tetrahydro-1H-carbazol-1-yl)-N′-phenylurea] | 1700 |
| O=C(NC1CCCc2c1[nH]c1ccc(Cl)cc21)c1ccccn1 (stereo not shown) [Example 45A, N-(6-Chloro-2,3,4,9-tetrahydro-1H-carbazol-1-yl)-2-pyridinecarboxamide] | 10 |
| O=C(N[C@@H]1CCCc2c1[nH]c1ccc(Cl)cc21)c1ccccn1 [Example 45B, N-[(1R)-6-chloro-2,3,4,9-tetrahydro-1H-carbazol-1-yl]pyridine-2-carboxamide] | 5 |
| O=C(N[C@H]1CCCc2c1[nH]c1ccc(Cl)cc21)c1ccccn1 [Example 45C, N-[(1S)-6-chloro-2,3,4,9-tetrahydro-1H-carbazol-1-yl]pyridine-2-carboxamide] | 6000 |
| O=C(NC1CCCc2c1[nH]c1ccc(Cl)cc21)c1ccccc1F (stereo not shown) [Example 46A, N-(6-Chloro-2,3,4,9-tetrahydro-1H-carbazol-1-yl)-2-fluorobenzamide] | 12 |
| O=C(N[C@@H]1CCCc2c1[nH]c1ccc(Cl)cc21)c1ccccc1F [Example 46B, N-[(1R)-6-chloro-2,3,4,9-tetrahydro-1H-carbazol-1-yl]-2-fluorobenzamide] | 7 |

Results, then the compound that gave them:

| IC50 [nM] | SMILES |
| --- | --- |
| > 3000 | O=C(N[C@H]1CCCc2c1[nH]c1ccc(Cl)cc21)c1ccccc1F [Example 46C, N-[(1S)-6-chloro-2,3,4,9-tetrahydro-1H-carbazol-1-yl]-2-fluorobenzamide] |
| 810 | Cn1cncc1C(=O)NC1CCCc2c1[nH]c1ccc(Cl)cc21 (stereo not shown) [Example 47, N-(6-Chloro-2,3,4,9-tetrahydro-1H-carbazol-1-yl)-1-methyl-1H-imidazole-5-carboxamide] |
| 2240 | Cn1nccc1C(=O)NC1CCCc2c1[nH]c1ccc(Cl)cc21 (stereo not shown) [Example 48, N-(6-Chloro-2,3,4,9-tetrahydro-1H-carbazol-1-yl)-1-methyl-1H-pyrazole-5-carboxamide] |
| 1650 | Cn1ccc(C(=O)NC2CCCc3c2[nH]c2ccc(Cl)cc32)n1 (stereo not shown) [Example 49, N-(6-Chloro-2,3,4,9-tetrahydro-1H-carbazol-1-yl)-1-methyl-1H-pyrazole-3-carboxamide] |
| 440 | O=C(NC1CCCc2c1[nH]c1ccc(Cl)cc21)c1c[nH]cn1 (stereo not shown) [Example 50, N-(6-Chloro-2,3,4,9-tetrahydro-1H-carbazol-1-yl)-1H-imidazole-4-carboxamide] |
| 73 | O=C(NC1CCCc2c1[nH]c1ccc(Cl)cc21)c1cc[nH]n1 (stereo not shown) [Example 51, N-(6-Chloro-2,3,4,9-tetrahydro-1H-carbazol-1-yl)-1H-pyrazole-3-carboxamide] |
| 45 | O=C(NC1CCCc2c1[nH]c1ccc(Br)cc21)c1c(F)cccc1F (stereo not shown) [Example 52, N-(6-bromo-2,3,4,9-tetrahydro-1H-carbazol-1-yl)-2,6-difluorobenzamide] |
| 51 | O=S(=O)(NC1CCCc2c1[nH]c1ccc(Br)cc21)c1ccccc1F (stereo not shown) [Example 53, N-(6-bromo-2,3,4,9-tetrahydro-1H-carbazol-1-yl)-2-fluorobenzenesulfonamide] |
| 94 | O=S(=O)(NC1CCCc2c1[nH]c1ccc(Br)cc21)c1c(F)cccc1F (stereo not shown) [Example 54, N-(6-bromo-2,3,4,9-tetrahydro-1H-carbazol-1-yl)-2,6-difluorobenzenesulfonamide] |
